Key:
CRTh2 receptor = molecular target: T1, CRTh2 receptor (Homo sapiens, UniProt Q9Y5Y4); test: Intracellular calcium mobilisation (FLIPR, inhibition of PGD2 response) in HEK-hrCRTh2-Gα16 cells; type: cell-based; details: antagonism of 2×p[A]50 PGD2, Cheng-Prusoff analysis, read-out: pA2 (converted)
T1 construct: expressed in transfected cells
T1 sequence (Q9Y5Y4 1-395): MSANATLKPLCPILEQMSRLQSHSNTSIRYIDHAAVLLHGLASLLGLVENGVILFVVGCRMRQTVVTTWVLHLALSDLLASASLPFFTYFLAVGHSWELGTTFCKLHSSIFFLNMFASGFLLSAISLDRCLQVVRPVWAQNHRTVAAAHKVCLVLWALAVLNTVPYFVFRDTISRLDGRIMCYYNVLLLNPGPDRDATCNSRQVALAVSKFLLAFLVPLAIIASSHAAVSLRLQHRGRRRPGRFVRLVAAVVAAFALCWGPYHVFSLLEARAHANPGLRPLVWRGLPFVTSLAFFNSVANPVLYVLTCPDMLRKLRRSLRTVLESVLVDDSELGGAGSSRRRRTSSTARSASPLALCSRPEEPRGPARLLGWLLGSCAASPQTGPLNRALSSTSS
Protocol: Intracellular Calcium Mobilisation
Human Embryonic Kidney Cells co-transfected with both the CRTh2 receptor and Gα16 G-protein (HEK-hrCRTh2-Gα16) are routinely cultured as monolayers in Dulbecco's Modified Eagles Medium (DMEM; Sigma) supplemented with 10% (v:v) heat inactivated foetal bovine serum (New Zealand sourced; Hyclone), 1% (v:v) non-essential amino acids (Gibco BRL), 1% (v:v) penicillin/streptomycin (Gibco BRL), 2 mM L-glutamine (Gibco BRL) and grown under 1 mg/ml (v:v) Geneticin (Gibco BRL) antibiotic selection. Approximately 24 hours prior to the assay the cells are plated at a seeding density of 100,000 cells/well in 100 μl growth media into black walled 96 well Poly-D-Lysine coated plates (Becton Dickinson), with clear bottoms to allow cell inspection and fluorescence measurements from the bottom of each well. All cultures are maintained under standard tissue culture conditions (37° C. in a humidified atmosphere of 5% CO2).
To enable changes in intracellular calcium levels to be measured in HEK-hrCRTh2-Gα16 cells fluo-3AM is utilised as the fluorescent calcium indicator. A dye loading buffer is prepared which consists of a final concentration of 5 μM Fluo-3AM fluorescent cytoplasmic calcium indicator dye (Tef Labs), 2.2 μl/ml Pluronic F127 (Molecular Probes) to promote dye uptake, and 0.5 mM brilliant black (Sigma) to reduce background fluorescence in Balanced Salt Solution (BSS; 125 mM NaCl, 5.4mM KCl, 16.2 mM NaHCO3, 0.8 mM MgCl2, 1 mM CaCl2, 20 mM HEPES, 1 mM NaH2PO4, 5.5 mM D-(+)-Glucose, 0.1% BSA and pH 7.4 with NaOH). […]
Test compounds are made up at a stock concentration of 10 mM in DMSO. The compounds to be evaluated are then prepared, by serial dilution in BSS buffer, to the required concentrations for inhibition dose response curves to be constructed. […] This allows the potency agonist ([A]50) value to be determined for the HEK-hrCRTh2-Gα16 cells on any given day. Once the p[A]50 for PGD2 has been determined a separate assay plate containing 2×p[A]50 of PGD2 is prepared as the 2nd addition plate (or agonist plate). […]

| Structure (SMILES) | melting point [°C] | Kb (CRTh2 receptor) [µM] |
| --- | --- | --- |
| COc1ccc2c(c1)c(CC(=O)O)c(C)n2-c1cc(C)nc(-c2ccccc2)n1 [Example 1, [5-methoxy-2-methyl-1-(6-methyl-2-phenylpyrimidin4-yl)-1H-indol-3-yl]acetic acid] | 160 to 162 | 0.316 |
| COc1ccc2c(c1)c(CC(=O)O)c(C)n2-c1nc2ccccc2s1 [Example 2, [1-(1,3-benzothiazol-2-yl)-5-methoxy-2-methyl-1H-indol-3-yl]acetic acid] | 158 to 160 | 0.316 |
| COc1ccc2c(c1)c(CC(=O)O)c(C)n2-c1cc(Oc2ccccc2)nc(Oc2ccccc2)n1 [Example 3, [1-(2,6-diphenoxypyrimidin-4-yl)-5-methoxy-2-methyl-1H-indol-3-yl]acetic acid] | 168 to 170 |  |
| Cc1ccc2c(c1)c(CC(=O)O)c(C)n2-c1cc(Oc2ccccc2)nc(Oc2ccccc2)n1 [[1-(2,6-diphenoxypyrimidin-4-yl)-2,5-dimethyl-1H-indol-3-yl]acetic acid] |  | 0.158 |

From patent US20050101612A1, “Use of indole-3-acetic acids in the treatment of asthma, copd and other diseases” (priority 2002, published 2005)
